Source: PubChem BioAssay (NCI)
Where “and” joins values, the source holds several entries; their conditions need not be identical. Identical values can stand only once.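 Grown in 96-well plates, cells were treated for 48 hours with each compound at five concentrations. Insufficient inhibition: endpoint recorded as highest concentration tested. Here, GI50 denotes the concentration required for 50% inhibition of growth. TGI is the concentration that stops growth completely.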

Columns and labels:
Test in all cases: growth of human tumour cells (NCI), 48 h
CCRF-CEM leukemia = system: CCRF-CEM leukemia
A498 renal = system: A498 renal
NCI-H23 lung = system: NCI-H23 lung
HCT-15 colon = system: HCT-15 colon
KM12 colon = system: KM12 colon
SNB-75 CNS = system: SNB-75 CNS
OVCAR-3 ovarian = system: OVCAR-3 ovarian
COLO 205 colon = system: COLO 205 colon
PC-3 prostate = system: PC-3 prostate
SR leukemia = system: SR leukemia

Row | SMILES | GI50 (CCRF-CEM leukemia) [µM] | TGI (CCRF-CEM leukemia) [µM] | GI50 (A498 renal) [µM] | TGI (A498 renal) [µM] | GI50 (NCI-H23 lung) [µM] | TGI (NCI-H23 lung) | GI50 (HCT-15 colon) [µM] | TGI (HCT-15 colon) | GI50 (KM12 colon) [µM] | TGI (KM12 colon) [µM] | GI50 (SNB-75 CNS) [µM] | TGI (SNB-75 CNS) [µM] | GI50 (OVCAR-3 ovarian) [µM] | TGI (OVCAR-3 ovarian) | GI50 (COLO 205 colon) [µM] | TGI (COLO 205 colon) | GI50 (PC-3 prostate) [µM] | TGI (PC-3 prostate) [µM] | TGI (SR leukemia) [µM] | GI50 (SR leukemia) [µM]
1 | CC(=O)[C@H]1CCC2[C@@H]3CC=C4C[C@@H]([O-])CC[C@]4(C)C3CC[C@@]21C.CC(=O)[C@H]1CCC2[C@@H]3CC=C4C[C@@H]([O-])CC[C@]4(C)C3CC[C@@]21C.CC(=O)[CH-]C(=O)c1ccccc1.CC(=O)[CH-]C(=O)c1ccccc1.Cl.[Ti+4] (some centres not stated) | 10.6 | > 100 | 12.8 | 27 | 13.4 | 29.5 µM | 17.6 | > 100 µM | 26.4 | > 100 | 24.4 | 66.2 | 39.5 | > 100 µM | 39.3 | > 100 µM | – | – | – | –
2 | Clc1cccc(C2N3CCCCC3[C@@H]3c4[nH]c5ccccc5c4CCN23)c1 (some centres not stated) | – | 56.6 | – | 77.3 | – | 45 µM | – | > 100 µM | – | – | – | 85.4 | – | > 100 µM | – | – | – | – | – | –
3 | CC(=O)[CH-]C(=O)c1ccccc1.CC(=O)[CH-]C(=O)c1ccccc1.O=S(=O)([O-])c1cc([O-])c2c([O-])cc(S(=O)(=O)[O-])cc2c1.[Na+].[Zr+4] | – | – | > 100 | > 100 | – | – | > 100 | > 100 µM | > 100 | > 100 | 49 | > 100 | > 100 | > 100 µM | – | – | – | – | – | –
4 | O=c1c(Cl)c(Cl)cnn1CCCl | – | 4.84 | – | 29 | – | 6.46 µM | – | 6.79 µM | – | 29.7 | – | 24.1 | – | 11.9 µM | – | 7.69 µM | – | – | – | –
5 | CCCCCCCCCC[C@H](O)[C@H](O)CC[C@@H](O)[C@H]1CC[C@@H]([C@H]2CC[C@H](CCCCCCC[C@@H](O)CC3=C[C@H](C)OC3=O)O2)O1 | – | – | 17.7 | 87.1 | 0.951 | – | 23.8 | > 100 µM | 27.7 | > 100 | 25.8 | 98.2 | 11.8 | 3.42 µM and 30.9 µM | 18 | 4.42 µM and 35.7 µM | 11.7 | 40.7 | – | –
6 | COc1ccc(S(=O)(=O)N(CC(=O)O)c2ccccc2)cc1 | – | > 100 | – | > 100 | – | > 100 µM | – | > 100 µM | – | > 100 | – | > 100 | – | > 100 µM | – | > 100 µM | – | – | – | –
7 | Nc1c(Cl)ncnc1NCCCCCCCCCCCCNc1ncnc(Cl)c1N | – | – | – | > 100 | – | 2.41 µM | – | > 100 µM | – | > 100 | – | 7.16 | – | 8.35 µM | – | 21.9 µM | – | – | 5.16 | –
8 | Cc1cccc(C)c1N1C(=O)C(=O)C(c2nc3ccccc3s2)/C(=N\N)C1=O (configuration not stated) | – | – | – | > 100 | – | > 100 µM | – | > 100 µM | – | > 100 | – | > 100 | – | > 100 µM | – | > 100 µM | – | – | – | –
9 | O=C(/C=C/c1cccc([N+](=O)[O-])c1)c1ccc([N+](=O)[O-])cc1 | – | > 100 | – | > 100 | – | > 100 µM | – | > 100 µM | – | > 100 | – | > 100 | – | > 100 µM | – | > 100 µM | – | – | > 100 | –
10 | O=C(Nc1ccc(Cl)c(Cl)c1)C(=O)C(C(=O)c1ccccc1-c1ccccc1)C1OC(=O)c2ccccc21 (configuration not stated) | – | 84.9 | – | 65.5 | – | 24.6 µM | – | – | – | 43.2 | – | 41.3 | – | 31.9 µM | – | 30.2 µM | – | – | – | –
11 | CC1=CC(C)(C)NN1C1=NS(=O)(=O)c2ccccc2N1C | – | > 100 | – | > 100 | – | > 100 µM | – | > 100 µM | – | > 100 | – | – | – | > 100 µM | – | > 100 µM | – | > 100 | – | –
12 | COC(=O)[C@@H]1Cc2c([nH]c3ccccc23)[C@H](c2ccccc2)N1 | – | > 100 | – | 48.6 | – | > 100 µM | – | 41.3 µM | – | > 100 | – | 86.1 | – | 98.7 µM | – | 38.6 µM | – | – | > 100 | –
13 | CC1NC(=O)C2=C1C(=O)NC(=O)C2 (configuration not stated) | > 100 | > 100 | > 100 | > 100 | > 100 | > 100 µM | > 100 | > 100 µM | > 100 | > 100 | – | – | > 100 | > 100 µM | – | – | > 100 | > 100 | – | –
14 | COC1OC2COC(C)(C)OC2C(OC(C)=O)C1NC(=O)N(CCCl)N=O (configuration not stated) | – | > 100 | – | > 100 | – | > 100 µM | – | > 100 µM | – | > 100 | – | > 100 | – | > 100 µM | – | > 100 µM | – | – | – | –
15 | COc1ccc([C@@]23Oc4cc(OC)cc(OC)c4[C@]2(O)[C@H](O)[C@H](C(N)=O)[C@H]3c2ccccc2)cc1 | – | > 100 | < 0.013 | < 0.0215 | – | 0.0769 µM and 0.0157 µM | 0.0177 | 0.33 µM and 0.229 µM | – | 0.0999 | < 0.01 | 0.119 | < 0.0129 | 0.101 µM and 0.284 µM | – | 0.0286 µM and 0.0116 µM | – | – | – | 0.01
16 | O=C(Nc1ccc(Cl)cc1Cl)OC(Cn1cncn1)c1ccc(Cl)cc1Cl (configuration not stated) | – | > 100 | – | 34.2 | – | 28.4 µM | – | 31.1 µM | – | 31 | – | 30.1 | – | 29.3 µM | – | 31.5 µM | – | – | > 100 | –
17 | O=C1c2ccccc2-c2c1c1ccccc1c(=O)n2CCCNCCn1c2c(c3ccccc3c1=O)C(=O)c1ccccc1-2 | – | – | 12.7 | 25.3 | 2.25 | 11.6 µM | 2.74 | 13 µM | 2.32 | > 100 | 11.8 | 32.2 | 8.82 | 21.1 µM | 36.2 | > 100 µM | 2.43 | 10.5 | – | –
18 | CCNC(=O)OCc1c(COC(=O)NCC)c(-c2ccc(Cl)c(Cl)c2)n2c1CCC2 | – | 21.4 | – | – | – | 26.3 µM | – | 36.9 µM | – | 59 | – | 27.7 | – | 45.8 µM | – | 62.1 µM | – | – | 30.1 | –
19 | CN(/N=C\c1ccnc2ccccc12)c1ccc([N+](=O)[O-])cc1 | – | 82.5 | – | > 100 | – | > 100 µM | – | > 100 µM | – | > 100 | – | > 100 | – | > 100 µM | – | > 100 µM | – | – | – | –
